Read-outs that look alike come from different tables or passages of the source.
Key:
HIV protease = target: T1, HIV protease (Human immunodeficiency virus type 1 group M subtype B, UniProt P04585); experiment: HIV Protease Assay; assay type: biochemical
T1 construct: and purified protease
In short: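 Purified protease cleaved 450 μM octapeptide substrate in 50 mM sodium acetate pH 5.5 with 100 μg/ml BSA for 30 minutes at 37° C; product analyzed by reverse-phase HPLC at UV220 after H3PO4 quench. Inhibitors tested at final 10 μM with 4% DMSO.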

[1] = test system: RF strain of HIV (CEM-SS cells); experiment: Cell Culture Anti-HIV Activity (cell viability, formazan); assay type: cell-based; details: CEM-SS cells, RF strain of HIV, multiplicity of infection 0.04, 6 days at 37° C., 450 nm, read-out: HIV (CEM Cells) IC50
Method: The antiviral activity of aminediol inhibitors of the present invention was evaluated by a microculture method which determines the increase in cell viability of an infected culture when a drug is added. The assay depends on the metabolic reduction of tetrazolium reagent by viable cells to yield a soluble colored formazan product.
The assay was performed as follows: suspensions of CEM-SS cells (5000/well) were infected with the RF strain of HIV at a multiplicity of infection at 0.04 in a 96-well plate. The compounds of the present invention listed in the following Table 1, serially diluted in half-log fashion, were added to the infected and uninfected control cells. Untreated (infected and uninfected) cells were included as controls. Following incubation for 6 days at 37° C., viable cells in each well were quantitated by the visible light absorbance at 450 nm.
The IC50 was calculated as the concentration of drug that increased the formazan production in virally infected cells to 50% of that produced by uninfected cells in the absence of drug.

[2] = pH 5.5, 10 μM inhibitor, 4% DMSO, 450 μM substrate, pH 5.5, 30 minutes at 37° C., RP-HPLC, read-out: HIV Protease % Inhibition at 10 μM
[3] = Human immunodeficiency virus 1, CEM-SS, 144 h
[4] = pH 5.5, read-out: HIV Protease % Inhibition at 10 μM

Row | inhibition at 10 µM (HIV protease; [2]) | inhibition at 10 µM (HIV protease; [4]) | HIV Protease % Inhibition at 10 μM (HIV protease) | SMILES | IC50 [1, 3] | IC50 [1]
1 | 100% | – | – | CC(C)[C@H](NC(=O)N(C)Cc1nc2ccccc2[nH]1)C(=O)N[C@@H](Cc1ccccc1)[C@H](O)CNC[C@@H](O)[C@H](Cc1ccccc1)NC(=O)OC(C)(C)C (relative stereo) [Compound 245, [1R*,2S*(2S*,3R*)]-N-[3-[[3-[[(1,1-Dimethylethoxy)carbonyl]amino]-2-hydroxy-4-phenylbutyl]amino]-2-hydroxy-1-(phenylmethyl)propyl]-N^2-[[(1H-benzimidazol-2-yl-methyl)methylamino]carbonyl]-L-valinamide] | 1800 nM | –
2 | 97% | – | – | CC(C)(C)OC(=O)N[C@@H](Cc1ccccc1)[C@H](O)CNC[C@@H](O)[C@H](Cc1ccccc1)NC(=O)OC(C)(C)CCOCc1ccccc1 [Compound 158, [1S-(1R*,2S*)]-[Iminobis[2-hydroxy-1-(phenylmethyl)-3,1-propanediyl]biscarbamic acid, 1,1-dimethylethyl 1,1-dimethyl-3-(phenylmethoxy)-propyl ester] | > 1800 nM | –
3 | – | 99% | – | CC(C)(C)OC(=O)N[C@@H](Cc1ccccc1)[C@H](O)CNC[C@@H](O)[C@H](Cc1ccc(OCC(O)c2cccnc2)cc1)NC(=O)OC(C)(C)C (single isomer, unassigned; isomer a) [Compound 355, [1S-[1R*,2S* (2S*,3R*)]]-[3-[[3-[[(1,1-Dimethylethoxy)carbonyl]amino]-2-hydroxy-4-[4-[2-hydroxy-2-(3-pyridinyl)ethoxy]phenyl]-butyl]amino]-2-hydroxy-1-(phenylmethyl)-propyl]-carbamic acid, 1,1-dimethylethyl ester, Isomer A] | 70 nM | –
4 | – | – | 100% | CC(C)(C)OC(=O)N[C@@H](Cc1ccccc1)[C@H](O)CNC[C@@H](O)[C@H](Cc1ccccc1)NC(=O)C1(O)CCCC1(C)C (single isomer, unassigned; isomer b) [Compound 322, [1S-[1R*,2S*(2S*,3R*)]]-[3-[[3-[[2,2-Dimethyl-1-hydroxycyclopentyl)-carbonyl]amino]-2-hydroxy-4-phenylbutyl]amino]-2-hydroxy-1-(phenylmethyl)-propyl]carbamic acid, 1,1-dimethylethyl ester, isomer B] | – | 20 nM
5 | 61% | – | – | COCC(C)(C)OC(=O)N[C@@H](Cc1ccccc1)[C@H](O)CNC[C@@H](O)[C@H](Cc1ccccc1)NC(=O)OC(C)(C)C [Compound 168, [R-(R*,S*)]-[Iminobis[2-hydroxy-1-(phenylmethyl)-3,1-propanediyl)biscarbamic acid, 1,1-dimethylethyl 2-methoxy-1,1-dimethylethyl ester] | 1400 nM | –

The next lines start with the compound.

Row | SMILES | inhibition at 10 µM (HIV protease; [2]) | inhibition at 10 µM (HIV protease; [4]) | HIV Protease % Inhibition at 10 μM (HIV protease) | IC50 [1, 3] | IC50 [1]
6 | CC(C)(C)OC(=O)N[C@@H](Cc1ccccc1)[C@@H](O)CNC[C@H](O)[C@H](Cc1ccccc1)NC(=O)OC(C)(C)C [Compound 3, [1S-[1R*,2R*(2R*,3R*)]]-[3-[[3-[[(1,1-Dimethylethoxy)carbonyl]amino]-2-hydroxy-4-phenylbutyl]amino]-2-hydroxy-1-(phenylmethyl)propyl]carbamic acid, 1,1-dimethylethyl ester] | 0% | – | – | > 3200 nM | –
7 | CC(C)[C@H](NC(=O)OCc1ccccc1)C(=O)N[C@@H](Cc1ccccc1)[C@H](O)CNC[C@@H](O)[C@H](Cc1ccccc1)NC(=O)[C@H](CC(N)=O)NC(=O)OC(C)(C)C [Compound 121, [S-[1R*,2S*(2S*.3R*)]]-N^2-[(1-Dimethylethoxy)carbonyl]-N-[2-hydroxy-3-[[2-hydroxy-4-phenyl-3-[[N-[(phenylmethoxy)carbonyl]-L-valyl]amino]butyl]amino]-1-(phenylmethyl)-propyl]-L-asparaginamide] | 73% | – | – | > 300 nM | –
8 | CC(C)[C@H](NC(=O)OCc1nc2ccccc2[nH]1)C(=O)N[C@@H](Cc1ccccc1)[C@H](O)CNC[C@@H](O)[C@H](Cc1ccccc1)NC(=O)OC(C)(C)C [Compound 93, [S-[1R*,2S*(2S*,3R*)[[-N-[3-[[3-[[(1,1-Dimethylethoxy)carbonyl]amino]-2-hydroxy-4-phenylbutyl]amino]-2-hydroxy-1-(phenylmethyl)propyl]-N2 -]-(1H-benzimidazol-2-ylmethoxy)carbonyl]-L-valinamide] | 100% | – | – | 180 nM | –
9 | CC(C)[C@H](NC(=O)CCc1nc2ccccc2[nH]1)C(=O)N[C@@H](Cc1ccccc1)[C@H](O)CNC[C@@H](O)[C@H](Cc1ccccc1)NC(=O)OC(C)(C)C [Compound 103, [S-[1R*,2S*(2S*,3R*)]-N^2-[3-(1H-Benzimidazol-2-yl)-1-oxo-propyl]-N-[3-[[3-[[(1,1-di-methylethoxy)carbonyl]amino-4-phenylbutyl]amino]-2-hydroxy-1-(phenylmethyl)propyl]-L-valinamide] | 98% | – | – | 1700 nM | –
10 | CC(C)(C)OC(=O)N[C@@H](CCc1ccccc1)[C@H](O)CNC[C@@H](O)[C@H](Cc1ccccc1)NC(=O)OC(C)(C)C [Compound 25, [1S-[1R*,2S*(2S*,3R* )]]-[3-[[3-[[(1,1-Dimethylethoxy)carbonyl]amino]-2-hydroxy-4-phenylbutyl]amino]-2-hydroxy-1-(2-phenylethyl))propyl]carbarmic acid, 1,1-dimethylethyl ester] | – | 98% | – | 530 nM | –
11 | CC(C)(C)OC(=O)N[C@@H](Cc1ccccc1)[C@H](O)CNC[C@@H](O)[C@H](Cc1ccccc1)NC(=O)OC(C)(C)c1ccccc1 [Compound 156, [1S-(1R*,2S*)]-2-hydroxy-1-(phenylmethyl)-3,1-propanediyl)biscarbamic acid, 1,1-dimethylethyl-1-methyl-1-phenylethyl ester] | 85% | – | – | > 6000 nM | –
12 | CC(C)C(C)(NC(=O)OCc1ccccc1)C(=O)N[C@@H](Cc1ccccc1)[C@H](O)CNC[C@@H](O)[C@H](Cc1ccccc1)NC(=O)OC(C)(C)C (stereo partly drawn) [Compound 73, [(S,R)-3-[[(R,S)-3-[[2-[[(Phenyl-methoxy)carbonyl)amino]-2,3-dimethyl-1-oxy-butyl]amino]-2-hydroxy-4-phenylbutyl]amino]-2-hydroxy-1-(phenylmethyl)-propyl]carbamic acid, 1,1-dimethylethyl ester] | 99% | – | – | 600 nM | –
13 | CC(C)(C)OC(=O)N[C@@H](Cc1ccccc1)[C@H](O)CNC[C@@H](O)[C@H](Cc1ccccc1)NC(=O)OC(C)(C)C [Compound 2, [1S-[1R*,2S*(2S*,3R*)]]-[3-[[3-[[(1,1-Dimethylethoxy)carbonyl]amino]-2-hydroxy-4-phenylbutyl]amino]-2-hydroxy-1-(phenylmethyl)propyl]carbamic acid, 1,1-dimethylethyl ester] | 100% | – | – | 90 nM | –
14 | CC(C)(C)NC(=S)N[C@@H](Cc1ccccc1)[C@H](O)CNC[C@@H](O)[C@H](Cc1ccccc1)NC(=O)OC(C)(C)C [Compound 137, [1S-[1R*,2S*(2S*,3R*)]]-[3-[[3-[[[(1,1-Dimethylethyl)amino]thioxomethyl]amino]-2-hydroxy-4-phenylbutyl]amino]-2-hydroxy-1-(phenylmethyl))propyl]carbamic acid, 1,1-dimethylethyl ester] | 92% | – | – | > 2600 nM | –
